From patent publication US20230000807A1, “CBD ORAL FORMULATION” (Clear Lake Research, LLC, priority 2020, published 2023)

Key:
[1] = target: T1, CB2 receptors (Homo sapiens, UniProt P34972); assay: receptor affinity; type: binding; conditions: estimated; times the affinity of CBD
Procedure: Because CB2 receptors have a low affinity for CBD, a relatively large amount of CBD should be used for efficacy. In a specific implementation, a thin film strip has 100 mg CBD. In alternatives, the oral thin film is as little as 20 mg CBD. Because CBD is a relatively expensive component, the ratio of CBD to other components is more prone to cost/efficacy trade-offs than other components of the formulation. Advantageously, a low does of CBD, of 50 mg or less, acts as a stimulant, making a 20 mg to 50 mg formulation appropriate for formulations that have a goal of reducing the amount of CBD necessary and meeting one of the goals of a concentration improver/mood enhancer, which is stimulation.
A greater proportion of CBD may be desirable for the purpose of binding to theorized CBD3 receptors or other presently poorly defined receptors with less affinity for CBD. A high dose of CBD, over 100 mg up to less than 250 mg can have a sedative effect that may be effective for certain individuals, though it is unlikely desirable to reach 250 mg. If CBD is replaced with by endocannabinoid with (an estimated) 1,000 times the affinity of CBD, such as 2-Lineoleoyl-glycerol (3443-82-1) or 2-Palmitolyl-glycerol (23470-00-0), an alternative implementation of the oral thin film could have 0.025 mg to 0.1 mg endocannabinoid, but the formulation would likely be much more expensive than CBD.

[2] = applied topically; cited from earlier work
[3] = target: T1, CB2 receptors; conditions: cited from earlier work

T1 sequence (P34972 whole entry): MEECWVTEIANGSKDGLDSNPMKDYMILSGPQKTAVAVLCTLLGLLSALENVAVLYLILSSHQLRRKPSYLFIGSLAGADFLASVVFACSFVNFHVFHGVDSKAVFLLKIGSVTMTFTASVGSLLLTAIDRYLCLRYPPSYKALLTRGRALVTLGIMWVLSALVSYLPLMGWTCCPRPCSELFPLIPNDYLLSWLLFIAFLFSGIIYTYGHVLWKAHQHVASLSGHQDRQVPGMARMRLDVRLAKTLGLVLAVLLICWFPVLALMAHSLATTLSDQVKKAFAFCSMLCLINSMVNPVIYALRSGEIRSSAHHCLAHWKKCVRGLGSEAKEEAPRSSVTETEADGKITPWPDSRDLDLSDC

| Compound | affinity relative to CBD [1] | time to have a significant pain relief impact [2] | affinity of CB2 receptors for the substance [3] |
| --- | --- | --- | --- |
| 2-Lineoleoyl-glycerol | ~1,000 times | – | – |
| 2-Palmitolyl-glycerol | ~1,000 times | – | – |
| C=C(C)[C@@H]1CCC(C)=C[C@H]1c1c(O)cc(CCCCC)cc1O [CBD, cannabidiol] | – | about 30 minutes | low affinity |
